Reference: ChEMBL document CHEMBL6134930, “Discovery of AB801, a Potent and Selective Inhibitor of AXL Receptor Tyrosine Kinase for Use in Cancer Therapy” (J Med Chem, 2025)

Legend:
[1] = AUC (0 to last) in Sprague-Dawley rat at 1 mg/kg, iv measured up to 8 hrs by LC-MS/MS analysis; format: ADME, organism-based; details: in vivo
[2] = Terminal half life in Sprague-Dawley rat at 1 mg/kg, iv measured up to 8 hrs by LC-MS/MS analysis; format: ADME, organism-based; details: in vivo, read-out: beta t1/2 (converted)
[3] = Metabolic stability in rat hepatocytes assessed as intrinsic clearance measured per 10^6 cells; format: ADME, cell-based, Hepatocyte; details: read-out: CLH
[4] = Terminal half life in CD-1 mouse at 1 mg/kg, iv measured up to 24 hrs by LC-MS/MS analysis; format: ADME, organism-based; details: in vivo, read-out: beta t1/2 (converted)
[5] = Clearance in CD-1 mouse at 1 mg/kg, iv measured up to 24 hrs by LC-MS/MS analysis; format: ADME, organism-based; details: in vivo
[6] = Clearance in cynomolgus monkey at 1 mg/kg, iv measured up to 8 hrs by LC-MS/MS analysis; format: ADME, organism-based, Macaca fascicularis; details: in vivo
[7] = AUCinfinity in Sprague-Dawley rat at 1 mg/kg, iv measured up to 8 hrs by LC-MS/MS analysis; format: ADME, organism-based; details: in vivo
[8] = Efflux ratio in human Caco-2 cells; format: ADME, cell-based
[9] = AUC (0 to last) in cynomolgus monkey at 1 mg/kg, iv measured up to 8 hrs by LC-MS/MS analysis; format: ADME, organism-based, Macaca fascicularis; details: in vivo
[10] = Metabolic stability in human hepatocytes assessed as intrinsic clearance measured per 10^6 cells; format: ADME, cell-based, Hepatocyte; details: read-out: CLH
[11] = Terminal half life in cynomolgus monkey at 1 mg/kg, iv measured up to 8 hrs by LC-MS/MS analysis; format: ADME, organism-based, Macaca fascicularis; details: in vivo, read-out: beta t1/2 (converted)
[12] = Clearance in Sprague-Dawley rat at 1 mg/kg, iv measured up to 8 hrs by LC-MS/MS analysis; format: ADME, organism-based; details: in vivo
[13] = Terminal half life in Beagle dog at 1 mg/kg, iv measured up to 8 hrs by LC-MS/MS analysis; format: ADME, organism-based, Canis lupus familiaris; details: in vivo, read-out: beta t1/2 (converted)
[14] = Volume of distribution at steady state in cynomolgus monkey at 1 mg/kg, iv measured up to 8 hrs by LC-MS/MS analysis; format: ADME, organism-based, Macaca fascicularis; details: in vivo, read-out: Vdss
[15] = biological target: T1, Tyrosine-protein kinase receptor UFO (Homo sapiens, UniProt P30530); test: Inhibition of human AXL measured after 150 mins by ATP-competitive HTRF based biochemical assay
T1 sequence (P30530 whole entry): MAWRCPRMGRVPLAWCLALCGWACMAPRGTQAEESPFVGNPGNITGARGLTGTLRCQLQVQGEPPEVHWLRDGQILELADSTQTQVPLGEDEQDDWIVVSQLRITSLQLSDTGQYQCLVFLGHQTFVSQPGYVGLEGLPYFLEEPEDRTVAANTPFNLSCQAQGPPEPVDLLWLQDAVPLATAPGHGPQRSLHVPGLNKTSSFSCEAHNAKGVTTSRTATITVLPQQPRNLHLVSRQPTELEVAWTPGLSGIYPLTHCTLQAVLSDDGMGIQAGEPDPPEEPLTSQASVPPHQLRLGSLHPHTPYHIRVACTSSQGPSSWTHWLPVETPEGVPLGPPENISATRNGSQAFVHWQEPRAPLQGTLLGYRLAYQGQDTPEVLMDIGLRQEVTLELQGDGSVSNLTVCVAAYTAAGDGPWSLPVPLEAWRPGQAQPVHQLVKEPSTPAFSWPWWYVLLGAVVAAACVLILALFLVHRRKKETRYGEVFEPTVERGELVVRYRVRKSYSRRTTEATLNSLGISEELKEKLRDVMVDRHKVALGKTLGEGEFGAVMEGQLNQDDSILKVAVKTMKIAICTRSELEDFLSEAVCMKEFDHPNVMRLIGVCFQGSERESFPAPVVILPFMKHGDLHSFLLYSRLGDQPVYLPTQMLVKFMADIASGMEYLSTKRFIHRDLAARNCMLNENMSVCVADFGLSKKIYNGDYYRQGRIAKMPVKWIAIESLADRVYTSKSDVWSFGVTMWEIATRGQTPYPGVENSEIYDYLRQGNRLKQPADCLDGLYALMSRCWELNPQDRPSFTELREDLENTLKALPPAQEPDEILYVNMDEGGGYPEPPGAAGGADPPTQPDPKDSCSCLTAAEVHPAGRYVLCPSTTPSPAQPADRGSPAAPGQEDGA

[16] = AUC (0 to last) in CD-1 mouse at 1 mg/kg, iv measured up to 24 hrs by LC-MS/MS analysis; format: ADME, organism-based; details: in vivo
[17] = AUCinfinity in CD-1 mouse at 1 mg/kg, iv measured up to 24 hrs by LC-MS/MS analysis; format: ADME, organism-based; details: in vivo
[18] = Volume of distribution at steady state in CD-1 mouse at 1 mg/kg, iv measured up to 24 hrs by LC-MS/MS analysis; format: ADME, organism-based; details: in vivo, read-out: Vdss
[19] = AUC (0 to last) in Beagle dog at 1 mg/kg, iv measured up to 8 hrs by LC-MS/MS analysis; format: ADME, organism-based, Canis lupus familiaris; details: in vivo
[20] = Clearance in Beagle dog at 1 mg/kg, iv measured up to 8 hrs by LC-MS/MS analysis; format: ADME, organism-based, Canis lupus familiaris; details: in vivo
[21] = AUCinfinity in Beagle dog at 1 mg/kg, iv measured up to 8 hrs by LC-MS/MS analysis; format: ADME, organism-based, Canis lupus familiaris; details: in vivo
[22] = AUCinfinity in cynomolgus monkey at 1 mg/kg, iv measured up to 8 hrs by LC-MS/MS analysis; format: ADME, organism-based, Macaca fascicularis; details: in vivo
[23] = biological target: T1, Tyrosine-protein kinase receptor UFO; test: Binding affinity to AXL (unknown origin) expressed in HEK293 cells transfected with Nano-Luc fusion vector assessed as dissociation constant by measuring decrease in BRET signal preincubated for 1 hr followed by K-5 NanoBRET tracer addition incubated for 2 hrs; format: cell-based
[24] = Volume of distribution at steady state in Sprague-Dawley rat at 1 mg/kg, iv measured up to 8 hrs by LC-MS/MS analysis; format: ADME, organism-based; details: in vivo, read-out: Vdss
[25] = AUCinf in Sprague-Dawley rat at 2 mg/kg, po measured up to 8 hrs by LC-MS/MS analysis; format: ADME, organism-based; details: in vivo
[26] = Volume of distribution at steady state in Beagle dog at 1 mg/kg, iv measured up to 8 hrs by LC-MS/MS analysis; format: ADME, organism-based, Canis lupus familiaris; details: in vivo, read-out: Vdss

Which AUC(0-t) at 8 h [1] does the source give for `CN(C)C(=O)c1ccc(-c2n[nH]c3ncc(-c4ccc5c(c4)CC[C@@H](N4C6COCC4C6)CC5)cc23)cc1` here?
The AUC(0-t) at 8 h was 6100 ng·h/mL.

What about the half-life [2] of the same molecule?
The half-life was 2.2 h.

What about the hepatocyte CLint [3] of the same molecule?
The hepatocyte CLint was 20 µL/min/1e6 cells.

And the half-life [4]?
Its half-life is 8.1 h.

What about the clearance [5] of the same molecule?
Its clearance is 38.3 mL/min/kg.

And the clearance [6]?
The clearance was 76.7 mL/min/kg.

What about the AUC(0-inf) [7] of the same molecule?
Its AUC(0-inf) is 6400 ng·h/mL.

What about the efflux ratio [8] of the same molecule?
The efflux ratio was 11.

And the AUC(0-t) at 8 h [9]?
Its AUC(0-t) at 8 h is 210 ng·h/mL.

And the hepatocyte CLint [10]?
The hepatocyte CLint was 4.6 µL/min/1e6 cells.

And the half-life [11]?
Its half-life is 2.3 h.

And the clearance [12]?
The clearance was 2.67 mL/min/kg.

And the half-life [13]?
Its half-life is 3.8 h.

What about the Vd [14] of the same molecule?
The Vd was 13 L/kg.

And the IC50 [15]?
Its IC50 is 5.3 nM.

What about the AUC(0-t) at 24 h [16] of the same molecule?
Its AUC(0-t) at 24 h is 13 ng·h/mL.

What about the AUC(0-inf) [17] of the same molecule?
Its AUC(0-inf) is 430 ng·h/mL.

What about the Vd [18] of the same molecule?
Its Vd is 3.2 L/kg.

And the AUC(0-t) at 8 h [19]?
The AUC(0-t) at 8 h was 540 ng·h/mL.

What about the clearance [20] of the same molecule?
The clearance was 33.3 mL/min/kg.

What about the AUC(0-inf) [21] of the same molecule?
Its AUC(0-inf) is 560 ng·h/mL.

What about the AUC(0-inf) [22] of the same molecule?
Its AUC(0-inf) is 230 ng·h/mL.

And the Kd [23]?
Its Kd is 6.8 nM.

What about the Vd [24] of the same molecule?
Its Vd is 0.34 L/kg.

What about the AUC(0-inf) [25] of the same molecule?
Its AUC(0-inf) is 4300 ng·h/mL.

And the Vd [26]?
The Vd was 8.1 L/kg.
